Experiments:
[1] = test system: waterhemp (common waterhemp, Amaranthus rudis); experiment: Test C postemergence; assay type: in vivo; conditions: Amaranthus tuberculatus, post-emergence, Postemergence, scale 0 to 100, read-out: Plant response rating, Waterhemp
kochia (Kochia scoparia) = experiment: Test C postemergence; assay type: in vivo; conditions: Bassia scoparia, post-emergence, Postemergence, scale 0 to 100, read-out: Plant response rating, Kochia
wild oat (Avena fatua) = experiment: Test C postemergence; assay type: in vivo; conditions: Avena fatua, post-emergence, Postemergence, scale 0 to 100, read-out: Plant response rating, Oat, Wild
[2] = test system: yellow nutsedge (Cyperus esculentus); experiment: Test C postemergence; assay type: in vivo; conditions: Cyperus, post-emergence, 336 h, Postemergence, scale 0 to 100, read-out: Plant response rating, Nutsedge, Yellow
[3] = test system: galium (catchweed bedstraw, Galium aparine); experiment: Test C postemergence; assay type: in vivo; conditions: Galium, post-emergence, 336 h, Postemergence, scale 0 to 100, read-out: Plant response rating, Galium
[4] = test system: pigweed (Amaranthus retroflexus); experiment: Test C postemergence; assay type: in vivo; conditions: Amaranthus retroflexus, post-emergence, 336 h, Postemergence, scale 0 to 100, read-out: Plant response rating, Pigweed
[5] = test system: chickweed (common chickweed, Stellaria media); experiment: Test C postemergence; assay type: in vivo; conditions: Stellaria media, post-emergence, Postemergence, scale 0 to 100, read-out: Plant response rating, Chickweed
[6] = test system: waterhemp (common waterhemp, Amaranthus rudis); experiment: Test C preemergence; assay type: in vivo; conditions: Amaranthus tuberculatus, pre-emergence, scale 0 to 100, read-out: Plant response rating, Waterhemp
Outline: (§1)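 Greenhouse test; preemergence on seeded loam-sand soil or spray on 1- to 4-leaf plants; solvent + surfactant vehicle; 13-15 day hold; visual comparison with controls; 0 (no effect)-100 (complete control).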

[7] = test system: winter wheat (Triticum aestivum); experiment: Test C preemergence; assay type: in vivo; conditions: Triticum aestivum, pre-emergence, 336 h, scale 0 to 100, read-out: Plant response rating, Wheat
Outline: as §1

[8] = test system: giant foxtail (Setaria faberii); experiment: Test C preemergence; assay type: in vivo; conditions: Setaria faberi, pre-emergence, 336 h, scale 0 to 100, read-out: Plant response rating, Foxtail, Giant
Outline: as §1

[9] = test system: johnsongrass (Sorghum halepense); experiment: Test C preemergence; assay type: in vivo; conditions: Sorghum halepense, pre-emergence, 336 h, scale 0 to 100, read-out: Plant response rating, Johnsongrass
Outline: as §1

[10] = test system: barnyardgrass (Echinochloa crus-galli); experiment: Test C preemergence; assay type: in vivo; conditions: Echinochloa crus-galli, pre-emergence; 31 g ai/ha, preemergence; scale 0 to 100; read-out: Plant response rating, Barnyardgrass
Outline: as §1

N#Cc1cccc(Oc2ncc(Cl)cn2)c1Oc1ncc(C(F)(F)F)cn1 [Compound 38, 3-[(5-chloro-2-pyrimidinyl)oxy]-2-[[5-(trifluoromethyl)-2-pyrimidinyl]oxy]-benzonitrile]
pest or weed control at 31 g/ha ([1]; 31 g ai/ha): 75% | pest or weed control at 62 g/ha ([1]; 62 g ai/ha): 85% | pest or weed control at 125 g/ha ([1]; 125 g ai/ha): 95% | pest or weed control at 16 g/ha (kochia (Kochia scoparia); 16 g ai/ha): 90% | pest or weed control at 31 g/ha (kochia (Kochia scoparia); 31 g ai/ha): 90% | pest or weed control at 62 g/ha (kochia (Kochia scoparia); 62 g ai/ha): 90% | pest or weed control at 125 g/ha (kochia (Kochia scoparia); 125 g ai/ha): 95% | pest or weed control at 31 g/ha (wild oat (Avena fatua); 31 g ai/ha): 5% | pest or weed control at 62 g/ha (wild oat (Avena fatua); 62 g ai/ha): 10% | pest or weed control at 125 g/ha (wild oat (Avena fatua); 125 g ai/ha): 10% | pest or weed control at 31 g/ha ([2]; 31 g ai/ha): 0% | pest or weed control at 62 g/ha ([2]; 62 g ai/ha): 5% | pest or weed control at 125 g/ha ([2]; 125 g ai/ha): 10% | pest or weed control at 16 g/ha ([3]; 16 g ai/ha): 70% | pest or weed control at 31 g/ha ([3]; 31 g ai/ha): 85% | pest or weed control at 62 g/ha ([3]; 62 g ai/ha): 90% | pest or weed control at 125 g/ha ([3]; 125 g ai/ha): 90% | pest or weed control at 31 g/ha ([4]; 31 g ai/ha): 85% | pest or weed control at 62 g/ha ([4]; 62 g ai/ha): 90% | pest or weed control at 125 g/ha ([4]; 125 g ai/ha): 90% | pest or weed control at 16 g/ha ([5]; 16 g ai/ha): 50% | pest or weed control at 31 g/ha ([5]; 31 g ai/ha): 50% | pest or weed control at 62 g/ha ([5]; 62 g ai/ha): 70% | pest or weed control at 125 g/ha ([5]; 125 g ai/ha): 85% | melting point: 101 to 103 °C | pest or weed control at 31 g/ha ([6]; 31 g ai/ha, preemergence): 100% | pest or weed control at 62 g/ha ([6]; 62 g ai/ha, preemergence): 100% | pest or weed control at 125 g/ha ([6]; 125 g ai/ha, preemergence): 100% | pest or weed control at 16 g/ha ([6]; Preemergence, 16 g ai/ha): 100% | plant injury at 31 g/ha ([7]; 31 g ai/ha, preemergence): 0% | plant injury at 62 g/ha ([7]; 62 g ai/ha, preemergence): 15% | plant injury at 125 g/ha ([7]; 125 g ai/ha, preemergence): 35% | plant injury at 16 g/ha ([7]; Preemergence, 16 g ai/ha): 0% | pest or weed control at 31 g/ha ([8]; 31 g ai/ha, preemergence): 95% | pest or weed control at 62 g/ha ([8]; 62 g ai/ha, preemergence): 100% | pest or weed control at 125 g/ha ([8]; 125 g ai/ha, preemergence): 100% | pest or weed control at 16 g/ha ([8]; Preemergence, 16 g ai/ha): 85% | pest or weed control at 31 g/ha ([9]; 31 g ai/ha, preemergence): 85% | pest or weed control at 62 g/ha ([9]; 62 g ai/ha, preemergence): 85% | pest or weed control at 125 g/ha ([9]; 125 g ai/ha, preemergence): 100% | pest or weed control at 16 g/ha ([9]; Preemergence, 16 g ai/ha): 45% | pest or weed control at 31 g/ha [10]: 85%

— patent publication US20170190671A1, “BIS(ARYL)CATECHOL DERIVATIVES AS HERBICIDES” (E I DU PONT DE NEMOURS AND COMPANY, priority 2014, published 2017)
